Entries after “also recorded” stand apart in the source; their conditions may differ.
Legend:
[1] = test system: human colon carcinoma Caco-2 cells; experiment: Uptake of FM 4-64-labeled bovine milk exosomes into Caco-2 cells; conditions: for effect on exosome transport: milk exosomes treated with protease
Experimental: Exosomes were isolated from bovine milk by differential centrifugation and authenticated as recommended by International Society for Extracellular Vesicles. […] Controls were incubated with solvent. Exosomes were labeled with FM4-64, and unlabeled fluorophore was removed. […] Transport kinetics were modelled using the Michaelis-Menten equation. One-way ANOVA and Bonferroni's multiple comparison were used for statistical analyses.
Caco-2 cells and IEC-6 cells were seeded at a density of 20,000 and 7000 cells/well, respectively, in 96-well plates, and allowed to adhere for 48 h, when cells were 75% confluent. The exosomes were labeled with the fluorophore, FM 4-64 (Molecular Probes). One microliter of a stock solution of FM 4-64 (5.9 mmol/L) was added to 1 mL of exosome suspension and incubated for 15 min at 37° C., and excess FM 4-64 was removed by ultracentrifugation at 120,000 3 g at 4° C. for 90 min. Transport studies were conducted using FM4-64-labeled exosomes using 3-110 mg of exosomal protein/well (Caco-2 cells) or 27-652 mg of exosomal protein/well (IEC-6 cells) and incubating cells for various periods of time to assess saturation kinetics; blanks were created using solvent. Assays were calibrated by quantifying the fluorescence of a known mass of exosomes labeled with FM 4-64. Exosome uptake was analyzed by measuring the cell fluorescence at 515 (excitation) and 640 nm (emission) using a Biotek FLx800 plate reader (BioTek Instru-ments). Fluorescence readings were corrected for cell autofluorescence by subtracting signals measured in cells incubated with exosome-depleted media. Transport kinetics was modeled using the Michaelis-Menten equation and nonlinear regression; modeling was conducted using GraphPad Prism 6.0 (GraphPad Software). […] Subsequent transport studies were conducted using incubation times of 8 hours for Caco-2 cells (FIG. 34B).
Transport kinetics was modeled using the Michaelis-Menten equation.

[2] = Bioavailability and distribution of fluorophore-labeled RNA and microRNA cargos in bovine milk exosomes; assay type: in vivo, Balb/c mice; conditions: for tissue distribution of fluorophore-labeled microRNA transfected into milk exosomes: oral gavage, 6 hours
Experimental: Exosomes were isolated from bovine milk using ultracentrifugation.
Labeling of exosomes and RNAs with synthetic fluorophores. […] All exosome preparations were utilized within 2 hours.

[3] = test system: human umbilical vein endothelial cells (HUVEC); experiment: Uptake of fluorophore-labeled cow's milk exosomes into HUVECs; assay type: cell-based
[4] = test system: rat small intestinal IEC-6 cells; experiment: Uptake of FM 4-64-labeled bovine milk exosomes into IEC-6 cells; assay type: cell-based; conditions: exosomes treated with 0.105 mMol/L trypsin for 30 mins
[5] = mouse, in vivo
Experimental: Exosomes were isolated from bovine milk using ultracentrifugation. Exosome membranes were labeled using the fluorophore, DiR, as described elsewhere herein. […] Identity, integrity, fine dispersion, and count of exosomes were assessed using transmission electron microscopy, western blots, and nanoparticle tracker (not shown). Exosomes were administered orally by gavage (1×10^12 exosomes/g) in BALB/c mice. Absorption and distribution of exosomes and their cargos was monitored at timed intervals for up to 24 h using an iBox® Small Animal Imaging system and LiCor Odyssey CLx. At timed intervals, mice were euthanized and various tissues were excised and collected for densitometry analysis using VisionWorks®LS and Image Studio software.
Studies were conducted in female Balb/c mice (Jackson Laboratory, stock number 000651), ages 8 to 20 weeks, unless noted otherwise.
Exosomes were labeled with the lipophilic fluorophore 1,1-dioctadecyl-3,3,3,3-tetrametylindotricarbocyanine iodide (DiR) as described elsewhere (see, e.g., Wiklander et al., J. Extracell. Vesicles 4:26316 (2015)). […] Free dyes and extra-exosomal synthetic microRNAs were removed by two PBS washes (120,000×g for 60 minutes), and 1×10^12 exosomes were administered per g body weight in a volume of less than 150 μl. […] All exosome preparations were utilized within 2 hours.

[6] = Bovine milk exosomes and miRNAs in embryos and placentas of pregnant mice at E16.5; assay type: in vivo
Source text: The bioavailability of bovine milk exosomes and miRNAs in fetal circulation of pregnant mice was examined. DiR-labelled bovine milk exosomes (or unlabeled control bovine milk exosomes) were adminstered to pregnant mice at embryonic day 16.5 (E16.5) to embryos and placentas. […] Three independent experiments per each treatment and control.

For “Glu-C: serine protease cleaving at glutamic acid and aspartic acid residues”, the “effect on exosome transport” value [1] was “significant decrease in exosome transport into CaCo-2 cells”.
In the case of “miR-320a: synthetic IRDye-labeled microRNA transfected into bovine milk exosomes; aaaagcuggguugagagggcga, SEQ ID NO: 10 (AAAAGCUGGGUUGAGAGGGCGA; IRDye fluorophore label, position not given here, synthetic)”, the “tissue distribution of IRDye-labeled microRNA transfected into milk exosomes” value ([2]; 3 hours after intravenous injection) is reported as “accumulated primarily in liver with small amounts being detectable in kidneys, lungs and spleen 3 hours after intravenous injection”, the apparent bioavailability ([2]; hepatic densitometry 3 hours after intravenous injection vs 6 hours after oral gavage) is reported as 25.4±8.7% and the “tissue distribution of fluorophore-labeled microRNA transfected into milk exosomes” value [2] is reported as “accumulated primarily in liver, spleen and kidneys 6 hours after oral gavage”.
With “miR-375: synthetic 5ATT0633N-labeled microRNA, with or without quencher 3IAbRQSp, transfected into milk exosomes; uuuuguucguucggcucgcguga, SEQ ID NO: 11 (UUUUGUUCGUUCGGCUCGCGUGA; listed as RNA, further chemistry not given here)” the “signal of microRNA conjugated to fluorophore and quencher” value ([2]; administered orally, signal indicates degradation) was “only a minimal signal was detected in heart and spleen” and the “tissue distribution of fluorophore-labeled microRNA transfected into milk exosomes” value [2] was “the signal localized primarily to the intestines, with minor signal being detectable in kidneys, brain and liver; also recorded: accumulated in brain, liver, kidneys and intestinal mucosa in mice”.
With `O=C[C@H](O)[C@@H](O)[C@@H](O)[C@H](O)CO` [D-galactose] the “effect of carbohydrate competitor on exosome uptake” value ([3]; 150 mmol/L, pretreated 30 min) was “caused a significant decrease in exosome uptake”.
In the case of “MiR-34a: synthetic IRDye-labeled microRNA transfected into bovine milk exosomes; uggcagugucuuagcugguugu, SEQ ID NO: 8 (UGGCAGUGUCUUAGCUGGUUGU; IRDye fluorophore label, position not given here, synthetic)”, the “tissue distribution of fluorophore-labeled microRNA transfected into milk exosomes” value [2] is reported as “brain”.
With trypsin the exosome uptake [4] was 82%+8%, the “tissue accumulation of exosomes depleted of surface proteins” value [5] was “reduced accumulation of exosomes in the liver and lungs after intravenous injection” and the “transport rates (Vmax)” value ([1]; exosomes treated with protease, control 88±1, cell type not named at the place) was 40±0.6 arbitrary units. For the same compound, the “effect on exosome transport” value [1] was “significant decrease in exosome transport into CaCo-2 cells”.
With `C=C1[C@@H](C)[C@H]2[C@H](Cc3ccccc3)NC(=O)[C@]23[C@H](OC(C)=O)/C=C/[C@@](C)(O)C(=O)[C@@H](C)C/C=C/[C@H]3[C@@H]1O` [cytochalasin D] the “decrease of transport rates compared with controls” value ([3]; exosomes treated with proteinase K, or transport in presence of D-galactose, excess unlabeled exosomes or cytochalasin D) was 50%.
For “miR-30d: microRNA loaded into bovine milk exosomes; uguaaacauccccgacuggaagcu, SEQ ID NO: 13 (UGUAAACAUCCCCGACUGGAAGCU; listed as RNA, further chemistry not given here)”, the “presence in embryo and placenta” value [6] was “present in both embryo and placenta”.

— patent US12290533B2, “Extracellular vesicles and methods of using” (NUtech Ventures, priority 2018, dated 2025)
